Experimental data: ChEMBL document CHEMBL3046334 (Med Chem Res, 2012)
pIC50: −log10 of the molar value.

What follows are compounds tested against T1, Prostaglandin G/H synthase 2 (Homo sapiens, UniProt P35354) (assay: Inhibition of COX2 in Homo sapiens (human) whole blood).
T1 sequence (P35354 whole entry): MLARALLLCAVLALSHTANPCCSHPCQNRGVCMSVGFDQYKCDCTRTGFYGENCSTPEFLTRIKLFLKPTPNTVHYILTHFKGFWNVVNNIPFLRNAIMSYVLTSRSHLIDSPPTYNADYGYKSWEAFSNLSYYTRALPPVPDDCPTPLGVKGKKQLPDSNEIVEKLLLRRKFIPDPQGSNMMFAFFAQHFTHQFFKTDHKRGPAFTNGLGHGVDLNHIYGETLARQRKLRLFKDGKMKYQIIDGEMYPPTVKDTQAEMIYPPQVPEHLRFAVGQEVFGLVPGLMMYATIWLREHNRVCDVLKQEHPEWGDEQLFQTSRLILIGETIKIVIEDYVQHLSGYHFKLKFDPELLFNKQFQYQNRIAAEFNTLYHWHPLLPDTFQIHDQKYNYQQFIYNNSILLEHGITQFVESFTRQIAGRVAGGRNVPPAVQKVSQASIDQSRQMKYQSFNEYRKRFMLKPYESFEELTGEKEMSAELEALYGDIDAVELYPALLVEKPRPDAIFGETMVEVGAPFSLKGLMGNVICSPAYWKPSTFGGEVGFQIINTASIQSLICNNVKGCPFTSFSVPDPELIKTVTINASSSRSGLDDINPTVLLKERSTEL

pIC50 | Structure (SMILES)
7.48 | CS(=O)(=O)c1ccc(-c2nc(NC3CC=CCC3)cc(C(F)(F)F)n2)cc1 (centres undefined)
5.92 | CS(=O)(=O)c1ccc(-c2nc(NCCCc3cccs3)cc(C(F)(F)F)n2)cc1
5.40 | Cn1cccc1CCCNc1cc(C(F)(F)F)nc(-c2ccc(S(C)(=O)=O)cc2)n1
5.48 | NS(=O)(=O)c1ccc(-c2nc(NCc3ccccc3)cc(C(F)(F)F)n2)cc1
